In the pKa sets of Baltruschat and Czodrowski (2020):

Conditions: acidic group

Structure (SMILES) | pKa
NS(=O)(=O)c1ccc(Cl)cc1 | 9.5
CCC/C=C(/C)C(=O)O | 4.44
NS(=O)(=O)c1ccc(/N=C/c2ccccc2[O-])cc1 | 11.7
CN1C(=O)NCc2[nH]cnc21 | 11.1
O=C(O)c1cccc([N+](=O)[O-])c1Cl | 2.02
[NH3+]CCS | 8.4
CC(=O)N[C@H]1CC(=O)NC1=O | 8.85
O=C(O[C@H]1O[C@@H](C(=O)O)[C@H](O)[C@@H](O)[C@@H]1O)c1ccccc1 | 2.85
CC1(C(=O)O)CCC=[N+]1[O-] (stereo unspecified) | 2.95
O=C(O)C(=O)C(c1ccccc1)c1ccccc1 | 2.78
NC(=O)C(CCCCC(=O)O)c1ccccc1 (stereo unspecified) | 4.79
O=c1[nH]c(=O)n(-c2ccccc2)[nH]1 | 4.9
CC(=N\O)/C(C)=N/O | 10.6
CCc1c(O)nn(-c2ccccc2C(=O)[O-])c1C | 12.2
CCC1(CC)SC(=O)NC1=O | 6.42
CCN(CC)CC(=N\O)/C(C)=N/O | 10.7
Oc1ccc(Br)cc1Br | 7.77
COc1cccc(O)c1O | 9.28
Cc1nn(C)c(O)c1Cc1ccccc1 | 10.9
O=C1CCC(=O)N1 | 9.59
Cn1cnc(/N=N/O)n1 | 5.48
CN1c2ccccc2Nc2ccc(O)cc21 | 10.1

Structure (SMILES) | pKa
O=C(CCl)Nc1nnc(-c2ccccc2)s1 | 6.9
COc1ccc(/C=N/O)cc1OC | 10.8
NNC(=O)c1ccccc1 | 12.4
O/N=C/c1ccncc1 | 9.91
O=S1(=O)C=C(O)c2ccccc21 | 7.65
Nc1ccc(C(=O)O)cc1 | 4.84
CC/C(=N/O)NO | 10.7
N#CCC(=O)O | 2.46
Oc1c(Br)cc(Br)c2cccnc12 | 7.3
COc1cccc(O)c1 | 9.51
C=C(C)[C@@H]1CN(C(C)=O)[C@H](C(=O)OC)[C@@H]1CC(=O)O | 4.6
O=C(O)[C@H]1C[C@@H]1c1ccccc1 | 4.54
C=CC#CCC(=O)O | 3.41
C[C@@H]1C[C@@H]1C(=O)O | 5.03
CC[NH+]1CCC[C@@H]1CNC(=O)c1c(O)c(Cl)cc(Cl)c1OC | 5.75
CC1=CC(C)(C)SC(=S)N1 | 10.9
Cc1cc(O)c(C(C)C)cc1Nc1ccc([O-])cc1 | 10.8
[O-]c1ncnc2nc[nH]c12 | 12.1
O=c1ccc2cc(O)c(O)cc2o1 | 7.63
CC(=O)C(Cc1ccc(C#N)cc1)C(C)=O | 9.69
CC[NH2+]CCC(=O)O | 3.61
C/C(=C\C=C\C(C)C(=O)O)[C@H]1C[NH2+][C@H](C(=O)[O-])[C@H]1CC(=O)[O-] (stereo partly specified) | 4.93

Structure (SMILES) | pKa
Oc1ccccc1-c1ccccc1O | 7.5
Cc1ccc(NN=C(C#N)C#N)c([N+](=O)[O-])c1 | 6
O=C(O)Cc1nnnn1-c1ccccc1 | 3.1
CS(=O)O | 2.35
OB(O)c1ccccc1 | 8.74
O=C(c1ccccc1)c1ccccc1O | 9.3
O=C(O)CCc1ccsc1 | 4.45
CC(=O)N1CCC[C@H]1C(=O)O | 3.21
CO[C@H]1C[C@H]1C(=O)O | 4.76
N#CCCC(C(=O)O)c1ccccc1 (stereo unspecified) | 3.92
CCCCC(CC)C(=O)O[C@H]1O[C@@H](C(=O)O)[C@H](O)[C@@H](O)[C@@H]1O (stereo partly specified) | 3.08
NC(=O)NOCC(=O)O | 2.6
O=C(O)c1ccc2ccccc2c1 | 4.2
CCCOC(=S)NC(C)=O | 9.34
Nc1c[nH+]c(S)nc1N | 2.96
ONc1ncnc2nc[nH]c12 | 9.83
Cc1ccccc(=O)c1O | 7.92
[NH3+]CC#CC#CCCC(=O)O | 4.05
COc1ccc(NC=S)cc1 | 11.7
CCN(CC)C(=S)S | 3.95
CC(=O)c1cccc(NC(N)=S)c1 | 12.1
SCc1ncc[nH]1 | 9.26

Structure (SMILES) | pKa
O=CC1CCCCC1=O (stereo unspecified) | 6.35
Cc1ccc(O)c(O)c1 | 9.62
CC(=S)Nc1ccccc1 | 11.6
O=C1CCC(O)=C1O | 4.8
O=c1[nH]c(=S)[nH]c2nc[nH]c12 | 5.88
CCOc1ccc(C(=O)O)cc1 | 4.64
O=C(O)CCC(=O)c1cccc2ccccc12 | 4.48
O=c1c(O)c1-c1ccccc1 | 2.01
NS(=O)(=O)c1cccc(Cl)c1 | 9.04
CCOc1cc(C)nc(-n2nc(C)cc2O)n1 | 7.35
O=[N+]([O-])c1ccc(O)cc1 | 7.13
C=CCCC(=O)O | 4.68
COc1cc(OC)nc(NS(=O)(=O)c2ccc(O)cc2)n1 | 7.29
O/C(=C/c1cc[nH+]cc1)c1ccccc1 | 4.19
O=C(CC(=O)c1ccccc1)Nc1ccc([N+](=O)[O-])cc1 | 8.91
Cn1c(=O)c2[nH]c([N+](=O)[O-])nc2n(C)c1=O | 3.58
CCCCCCCc1c(-c2ccccc2)n[nH]c1O | 9.2
Cc1cc(C(N)=O)cc(C)[n+]1O | 2.08
COc1ccc(/C=C/C(=O)O)cc1 | 4.6
Oc1cc(-c2ccccc2)n(-c2ccccc2)n1 | 12.9

Same assay, conditions: basic group

Structure (SMILES) | pKa
COc1ccc([N+](=O)[O-])c2cccnc12 | 3.55
CC(C)N(C)/C=N/c1ccc(-c2c[nH]cn2)cc1 | 8.72
OC[C@@H]1O[C@H](n2cnc3c2ncn2ccnc32)[C@@H](O)[C@H]1O | 4.1
Cc1nc(N)c2cnn(-c3ccccc3)c2n1 | 4.52
[NH3+][C@@H](Cc1c[nH]cn1)C(=O)N[C@@H](Cc1c[nH]cn1)C(=O)[O-] | 6.8
CN(C)/C=N/c1cccc([N+](=O)[O-])c1 | 7.29
NCCC(=O)[O-] | 10.2
CCCCCCCCCCN(CCO)CC(C)O (stereo unspecified) | 7.5
CC(N)CCc1ccccc1 (stereo unspecified) | 9.78
Cn1c(CBr)nc2c(O)ccc(O)c21 | 3.99
Cc1n[nH]c2ccc(N)cc12 | 5.25
O=c1[nH]c(=O)n(-c2ccccc2)[nH]1 | -4.1
CCOCCn1c(CN2CCC[NH+](CCCCn3cc(C(=O)[O-])cn3)CC2)nc2ccccc21 | 4.8
O=C(c1ccccc1)n1cnc2ccccc21 | 1.8
c1ccc2c(c1)CNCCC[NH2+]Cc1ccccc1OCCO2 | 7.82
CN1CCC(NNc2ccccc2)CC1 | 8.7
CC[NH+](CC)CCCCC(C)Nc1c2ccc(Cl)cc2nc2ccc(OC)cc12 (stereo unspecified) | 7.74
NC12CCC(C1)C2 | 9.3
Cc1cc(C)[n+](C)c([S-])n1 | 3.15
C#C[C@]1(O)C[C@H](C)N(C)[C@@H]2CCCC[C@H]21 | 9.22
Cc1cccc(C)c1NC(=O)CNCC(C)C | 7.83
COc1cccc(NCCS)c1 | 5.18
Cc1cccc(C2NCCS2)c1 (stereo unspecified) | 5.26

Structure (SMILES) | pKa
[NH3+]CCCc1ccncc1 | 5.51
CN1c2ccccc2Nc2ccc(O)cc21 | 1
c1ccc(CNC23OC4C5C6CC(C7C6C4C72)C53)cc1 (stereo unspecified) | 7.07
Cc1cnc2c(c1)c(C)c(C)c1cccnc12 | 5.34
NNC(=O)c1ccccc1 | 3.02
O/N=C/c1ccncc1 | 4.58
C(=N\c1ccccc1)/c1ccccc1 | 4.55
Nc1ccc(C(=O)O)cc1 | 2.41
CC/C(=N/O)NO | 5.15
Oc1c(Br)cc(Br)c2cccnc12 | 2.6
CC(C)C(=O)C(C)(C)CN(C)C | 9.3
CN(C)CCc1c[nH]c2ccc([O-])cc12 | 11.2
CCCCCN(CCO)CC(O)CC (stereo unspecified) | 9.1
O=Cc1ccnc2ccccc12 | 4.25
CC[Si](C)(C)CN | 10.7
CCOCCn1c(N2CCCN(CCCCn3cccn3)CC2)nc2ccccc21 | 8.5
CCCN(CCO)CC(C)O (stereo unspecified) | 8.9
[O-]c1ncnc2nc[nH]c12 | 8.81
Oc1ccc(NCc2ccccc2)cc1 | 5.17
CNCCCc1ccccc1 | 10.6
C[C@@H]1CC[C@@H]2CC[C@H](C)N21 | 10.2
C=CC(C)(CC)N(C)C(C)C (stereo unspecified) | 11.3
CN(C)c1ccc([N+](=O)[O-])c2c(NCCC[NH+](C)C)c3ccccc3nc12 | 6.47

Structure (SMILES) | pKa
Cc1ccc(NN=C(C#N)C#N)c([N+](=O)[O-])c1 | -0.78
CC(=O)OCC1CN2CCC1CC2 (stereo unspecified) | 10.3
CC(O)CN(C)CC(C)O (stereo unspecified) | 8.7
Clc1cccc(Nc2ccccc2)c1 | 2.34
Nc1ccccc1N | 4.43
CCOC(=O)CCN | 9.13
O=C([O-])CSc1nc2cc3c(cc2[nH]1)CCCC3 | 5.2
NCc1ccc(Cl)cc1 | 9.24
C/C(=C\C(C)=N\c1ccccc1)Nc1ccccc1 | 7.22
CC(=O)N=C(N(C)C)N(C)C | 7.5
CN(C)O | 5.2
CNc1ccccn1 | 7.13
NCC(=O)Nc1ccc([N+](=O)[O-])cc1 | 8.5
C=CCN(CC(C)O)CC(C)O (stereo unspecified) | 8.2
Cc1cc(N)nc2ccc3ccccc3c12 | 7.14
COC(=O)N1c2ccccc2[C@@]23CCN4CC=C[C@]5(CC[C@]12[C@](O)(C(=O)OC)C5O)[C@H]43 (stereo partly specified) | 5.63
CN1CC=CC1 | 9.92
ONc1ncnc2nc[nH]c12 | 3.8
Cc1cc(N)c(C)cn1 | 9.68
NC(Cc1ccccc1)c1nnn[n-]1 (stereo unspecified) | 8.18
C#CC(C)(C)NC(C)(C)C#C | 6.45
Nc1cccc2nccnc12 | 2.62
Cc1cc(N)nc(Nc2ccc(Cl)cc2)n1 | 6.6

Structure (SMILES) | pKa
Cc1cccc(C)c1C(=N)c1ccccc1 | 7.71
CCCNc1ccccc1 | 5.12
c1ccc(N=C(Nc2ccccc2)Nc2ccccc2)cc1 | 9.1
SCc1ncc[nH]1 | 6.37
CC(C)/N=C/N(C)c1ccc(-c2c[nH]cn2)cc1 | 10.4
C[NH+](C)CCCNc1ccnc2ccc([N+](=O)[O-])cc12 | 6.99
Cc1cccc2cccnc12 | 4.87
CC1(C)CC(=O)C(C)(C)N1 | 7.1
Clc1ccc(-c2ncc(-c3ccccc3)o2)cc1 | 0.41
COc1ccc(C=O)cc1C(=O)N[C@@H]1C[C@H]2CC[C@@H](C1)N2Cc1ccccc1 | 8.74
Cc1c(N)ccc2c1-c1c(ccc3ccccc13)C2 | 4.49
Cc1cnc2c([S-])ncnc2n1 | 7.02
O=C(Nc1ccccn1)c1ccccc1 | 3.33
CN=C1CCCCC1 | 9.43
c1coc(-c2ccncc2)c1 | 5.6
O=C1c2ccccc2CN1C1CC2CCC(C1)N2Cc1ccccc1 (stereo unspecified) | 8.71
CCSCCN | 9.48
O=[N+]([O-])c1ccc(NO)cc1 | 0.65
Cn1cc[nH+]c1-c1ccccn1 | 0.4
c1cncc(-c2ccc[nH+]c2)c1 | 3
O=C([O-])[C@@H](O)Cc1c[nH]cn1 | 7.32
